Broadly, the IC50 is the concentration that inhibits the measured activity by half. Lower therefore signals higher potency. One may read the Ki as a measure of affinity in units of concentration, obtained from inhibition or displacement. A high value points to weaker binding.

One test has as its target Mu-type opioid receptor (Cavia porcellus, UniProt P97266). Description: The compound was evaluated for the binding affinity towards mu-opioid receptor by displacement of [3H]DAMGO radioligand from guinea pig ileum. Format: tissue-based. On the technique in general: Loss of bound radioactivity is the signal in a displacement assay; it reports binding, not function.
The target of test [1] is Delta-type opioid receptor (Mus musculus, UniProt P32300). Description: The compound was evaluated for the binding affinity towards delta-opioid receptor by displacement of [3H]p-CI-DPDPE radioligand from mouse vas deferens. In kind it is tissue-based.
Chain of Delta-type opioid receptor (P32300 whole entry): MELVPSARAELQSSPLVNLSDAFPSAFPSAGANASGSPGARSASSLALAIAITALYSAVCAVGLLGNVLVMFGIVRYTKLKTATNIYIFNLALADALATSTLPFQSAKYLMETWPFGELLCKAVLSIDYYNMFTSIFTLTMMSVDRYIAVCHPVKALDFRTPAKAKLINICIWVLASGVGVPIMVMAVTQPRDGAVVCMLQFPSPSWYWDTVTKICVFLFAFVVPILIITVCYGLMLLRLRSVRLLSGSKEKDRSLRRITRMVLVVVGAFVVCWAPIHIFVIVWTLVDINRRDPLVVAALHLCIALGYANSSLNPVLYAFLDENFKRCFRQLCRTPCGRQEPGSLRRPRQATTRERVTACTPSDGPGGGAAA

Chain of Mu-type opioid receptor (P97266 whole entry): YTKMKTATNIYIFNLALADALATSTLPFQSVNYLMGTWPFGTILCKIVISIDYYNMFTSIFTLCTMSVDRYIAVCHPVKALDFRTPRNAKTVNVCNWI

Turning to `Cc1cc(O)cc(C)c1[C@@H](C)[C@H](N)C(=O)N1Cc2ccccc2C[C@H]1C(=O)O`, the IC50 on Mu-type opioid receptor is 35 µM; in test [1], 0.0093 µM.
On to `NC(Cc1ccc(O)cc1)C(=O)N1Cc2ccccc2C[C@H]1C(=O)O` (single isomer, unassigned), for which the Ki on Mu-type opioid receptor came to 28.4 µM; in test [1], 0.191 µM.
In the case of `Cc1cc(O)cc(C)c1C(C)C(NC(=O)OC(C)(C)C)C(=O)N1Cc2ccccc2C[C@H]1C(=O)OCc1ccccc1` (some centres not stated), the concentration for half-maximal inhibition (IC50) at Mu-type opioid receptor turned out to be 8.4 µM; in test [1], 0.019 µM.
The matching figures for `Cc1cc(O)cc(C)c1[C@H](C)[C@@H](N)C(=O)N1Cc2ccccc2C[C@H]1C(=O)O`: over 80 µM and over 10 µM.
For `Cc1cc(O)cc(C)c1[C@@H](C)[C@@H](N)C(=O)N1Cc2ccccc2C[C@H]1C(=O)O`, the results for the IC50 (at Mu-type opioid receptor; in test [1]) were over 80 µM and over 10 µM, respectively.
In the case of `Cc1cc(O)cc(C)c1[C@H](C)[C@H](N)C(=O)N1Cc2ccccc2C[C@H]1C(=O)O`, the results for the concentration for half-maximal inhibition (IC50) (at Mu-type opioid receptor; in test [1]) were over 80 µM and 0.124 µM, respectively.

Source of the values: ChEMBL document CHEMBL1152040, “The stereochemical requirements of the novel -opioid selective dipeptide antagonist TMT-Tic” (Bioorg Med Chem Lett, 1997).
